Assay results from patent publication US20250304620A1, “ANTIMICROBIAL PEPTIDE AND APPLICATION THEREOF” (priority 2023, published 2025).
Values after ≈ are worked out from the molar mass of the structure shown. Marks after values point to notes of the source that are not given here. Non-standard residues stand in square brackets, D forms with d. Residues, ends and D or L forms follow the SMILES beside them. dPhe(3,4-F2) = N[C@H](Cc1ccc(F)c(F)c1)C(=O)O; d2Nal = N[C@H](Cc1ccc2ccccc2c1)C(=O)O; d(hLeu) = CC(C)CC[C@@H](N)C(=O)O; dNva = CCC[C@@H](N)C(=O)O

How the values were obtained:
[1] = test system: Methicillin-resistant Staphylococcus aureus (MRSA); type: cell-based; conditions: Methicillin-resistant
In short: (§1)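 Read-out is the minimum inhibitory concentration, obtained by twofold serial dilution in microdilution format per CLSI guidance, with five parallel runs.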

[2] = test system: carbapenem-resistant Escherichia coli (CREC); type: cell-based; conditions: carbapenem-resistant (CREC)
In short: as §1

[3] = test system: carbapenem-resistant Klebsiella pneumoniae (CRKP); type: cell-based; conditions: carbapenem-resistant (CRKP)
In short: as §1

[4] = test system: carbapenem-resistant Pseudomonas aeruginosa (CRPA); type: cell-based; conditions: carbapenem-resistant (CRPA)
In short: as §1

[5] = test system: vancomycin-resistant Enterococcus (VRE); type: cell-based
In short: as §1

[6] = test system: rabbit red blood cells; type: cell-based; conditions: red cells of rabbit, 1 h
[7] = test system: Pseudomonas aeruginosa ATCC 27853; assay: Injectable formulations on mice infected with peritonitis; type: in vivo, ICR mice; conditions: twice a day for 3 days; for Number of mice that died on each day after infection: day 1 / Number of mice that died on each day after infection: day 2 / Number of mice that died on each day after infection: day 3 / Number of mice that died on each day after infection: day 4 / Number of mice that died on each day after infection: day 5 / Average survival times (Days): n = 10; for Average survival times (Days): observed for 14 d; for survival time of mice infected with Pseudomonas aeruginosa: tail vein, observed 14 d
In short: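 Survival readout: deaths and survival time tracked for 14 d. Treatment was tail-vein injection by body weight, twice a day for 3 consecutive days, starting right after intraperitoneal challenge with 0.2 mL of 1×10^9 CFU/mL P. aeruginosa ATCC 27853 in male and female ICR mice.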

SMILES	MIC MRSA [1] [µg/mL]	MIC CREC [2] [µg/mL]	MIC CRKP [3] [µg/mL]	MIC CRPA [4] [µg/mL]	MIC VRE [5] [µg/mL]	MHC (minimum hemolytic concentration, lowest concentration causing 10% hemolysis) [6] [µg/mL]	Number of mice that died on each day after infection: day 1 ([7]; 0.2 mg/kg via tail vein) [Mouse]	Number of mice that died on each day after infection: day 2 ([7]; 0.2 mg/kg via tail vein) [Mouse]	Number of mice that died on each day after infection: day 3 ([7]; 0.2 mg/kg via tail vein) [Mouse]	Number of mice that died on each day after infection: day 4 ([7]; 0.2 mg/kg via tail vein) [Mouse]	Number of mice that died on each day after infection: day 5 ([7]; 0.2 mg/kg via tail vein) [Mouse]	Average survival times (Days) ([7]; 0.2 mg/kg via tail vein)	Number of mice that died on each day after infection: day 1 ([7]; 1 mg/kg via tail vein) [Mouse]	Number of mice that died on each day after infection: day 2 ([7]; 1 mg/kg via tail vein) [Mouse]	Number of mice that died on each day after infection: day 3 ([7]; 1 mg/kg via tail vein) [Mouse]	Number of mice that died on each day after infection: day 4 ([7]; 1 mg/kg via tail vein) [Mouse]	Number of mice that died on each day after infection: day 5 ([7]; 1 mg/kg via tail vein) [Mouse]	Average survival times (Days) ([7]; 1 mg/kg via tail vein)	Number of mice that died on each day after infection: day 1 ([7]; 5 mg/kg via tail vein) [Mouse]	Number of mice that died on each day after infection: day 2 ([7]; 5 mg/kg via tail vein) [Mouse]	other results
CC(=O)N[C@H](CCCCN)C(=O)N[C@H](CCCCN)C(=O)N[C@H](CC(C)C)C(=O)N[C@H](CC(C)C)C(=O)N[C@H](Cc1ccc(F)c(F)c1)C(=O)N[C@H](CCCNC(=N)N)C(=O)N[C@H](CC(C)C)C(=O)N[C@H](CCCCN)C(=O)N[C@H](Cc1ccc(F)c(F)c1)C(=O)N[C@H](CCCNC(=N)N)C(=O)N[C@H](CCCCN)C(N)=O [LV-25] (Ac-[dK][dK][dL][dL][dPhe(3,4-F2)][dR][dL][dK][dPhe(3,4-F2)][dR][dK]-NH2)	2 (≈ 1.26 µM)	4 (≈ 2.52 µM)	8 (≈ 5.03 µM)	4 (≈ 2.52 µM)	8 (≈ 5.03 µM)	>1000	2	1	1	1	1	7.2** Days	0	1	1	0	1	10.8**** Days	0	3	Number of mice that died on each day after infection: day 3 ([7]; 5 mg/kg via tail vein): 0 Mouse; Number of mice that died on each day after infection: day 4 ([7]; 5 mg/kg via tail vein): 0 Mouse; Number of mice that died on each day after infection: day 5 ([7]; 5 mg/kg via tail vein): 0 Mouse; Average survival times (Days) ([7]; 5 mg/kg via tail vein): 10.4**** Days; survival time of mice infected with Pseudomonas aeruginosa [7]: superior to those of the Levofloxacin group
CC(=O)N[C@H](CCCNC(=N)N)C(=O)N[C@H](CCCCN)C(=O)N[C@H](CCC(C)C)C(=O)N[C@H](CCC(C)C)C(=O)N[C@H](Cc1ccc2ccccc2c1)C(=O)N[C@H](CCCNC(=N)N)C(=O)N[C@H](CCC(C)C)C(=O)N[C@H](CCCCN)C(=O)N[C@H](Cc1ccc2ccccc2c1)C(=O)N[C@H](CCCNC(=N)N)C(=O)N[C@H](CCCCN)C(N)=O [LV-14] (Ac-[dR][dK][d(hLeu)][d(hLeu)][d2Nal][dR][d(hLeu)][dK][d2Nal][dR][dK]-NH2)	4 (≈ 2.37 µM)	8 (≈ 4.74 µM)	4 (≈ 2.37 µM)	8 (≈ 4.74 µM)	4 (≈ 2.37 µM)	>1000							1	2	0	1	1	8.4** Days			
CC(=O)N[C@H](CCCCN)C(=O)N[C@H](CCCCN)C(=O)N[C@H](CC(C)C)C(=O)N[C@H](CC(C)C)C(=O)N[C@H](Cc1ccc2ccccc2c1)C(=O)N[C@H](CCCCN)C(=O)N[C@H](CC(C)C)C(=O)N[C@H](CCCCN)C(=O)N[C@H](Cc1ccc2ccccc2c1)C(=O)N[C@H](CCCCN)C(=O)N[C@H](CCCCN)C(N)=O [LV-17] (Ac-[dK][dK][dL][dL][d2Nal][dK][dL][dK][d2Nal][dK][dK]-NH2)	8 (≈ 5.12 µM)	4 (≈ 2.56 µM)	4 (≈ 2.56 µM)	4 (≈ 2.56 µM)	8 (≈ 5.12 µM)	>1000	1	2	1	1	1	7.3** Days	0	2	0	1	0	10.6**** Days	0	2	Number of mice that died on each day after infection: day 3 ([7]; 5 mg/kg via tail vein): 1 Mouse; Number of mice that died on each day after infection: day 4 ([7]; 5 mg/kg via tail vein): 1 Mouse; Number of mice that died on each day after infection: day 5 ([7]; 5 mg/kg via tail vein): 0 Mouse; Average survival times (Days) ([7]; 5 mg/kg via tail vein): 9.5*** Days; survival time of mice infected with Pseudomonas aeruginosa [7]: superior to those of the Levofloxacin group
CCC[C@@H](NC(=O)[C@@H](CCCCN)NC(=O)[C@@H](CCCNC(=N)N)NC(C)=O)C(=O)N[C@H](CCC)C(=O)N[C@H](Cc1ccc2ccccc2c1)C(=O)N[C@H](CCCNC(=N)N)C(=O)N[C@H](CCC)C(=O)N[C@H](CCCCN)C(=O)N[C@H](Cc1ccc2ccccc2c1)C(=O)N[C@H](CCCNC(=N)N)C(=O)N[C@H](CCCCN)C(N)=O [LV-13] (Ac-[dR][dK][dNva][dNva][d2Nal][dR][dNva][dK][d2Nal][dR][dK]-NH2)	2 (≈ 1.25 µM)	4 (≈ 2.49 µM)	2 (≈ 1.25 µM)	2 (≈ 1.25 µM)	4 (≈ 2.49 µM)	>1000							3	1	0	1	0	7.9** Days			
CC(=O)N[C@H](CCCCN)C(=O)N[C@H](CCCCN)C(=O)N[C@H](CC(C)C)C(=O)N[C@H](CC(C)C)C(=O)N[C@H](Cc1ccc2ccccc2c1)C(=O)N[C@H](CCCNC(=N)N)C(=O)N[C@H](CC(C)C)C(=O)N[C@H](CCCCN)C(=O)N[C@H](Cc1ccc2ccccc2c1)C(=O)N[C@H](CCCNC(=N)N)C(=O)N[C@H](CCCCN)C(N)=O [LV-19] (Ac-[dK][dK][dL][dL][d2Nal][dR][dL][dK][d2Nal][dR][dK]-NH2)	4 (≈ 2.47 µM)	8 (≈ 4.94 µM)	4 (≈ 2.47 µM)	2 (≈ 1.24 µM)	4 (≈ 2.47 µM)	>1000	3	2	0	0	0	7.7** Days	0	0	1	0	2	11.1**** Days	1	0	Number of mice that died on each day after infection: day 3 ([7]; 5 mg/kg via tail vein): 2 Mouse; Number of mice that died on each day after infection: day 4 ([7]; 5 mg/kg via tail vein): 0 Mouse; Number of mice that died on each day after infection: day 5 ([7]; 5 mg/kg via tail vein): 0 Mouse; Average survival times (Days) ([7]; 5 mg/kg via tail vein): 10.5**** Days; survival time of mice infected with Pseudomonas aeruginosa [7]: superior to those of the Levofloxacin group
